Assay results taken from patent publication US8221736B2, “Semiochemical” (Rothamsted Research Limited, priority 1999, dated 2012).
Marks after values point to notes of the source that are not given here.

Experiments:
pollen beetles = experiment: Field-trapping experiments with yellow bowl traps against pollen beetles; assay type: in vivo
Method: Field-trapping experiments were also conducted using cis-jasmone against pollen beetles. Attractive yellow bowl traps, at 1 m height and 10 m spacing, were placed in a Latin square design (one row of the Latin square=one replicate; traps are re-randomized to the next row of the square when a mean of 10 beetles are caught per trap). Catches in an unbaited bowl were compared with those bowls baited with cis-jasmone released at two different rates. Analysis was by ANOVA, on transformed total catch data. The transformation used was x=log10(y+1), where x and y are the transformed and untransformed data, respectively. Transformed means were compared using the LSD (least […] difference) test and transformed back to give the results as set out in Table 1.
P<0.05. Numbers in brackets are the percent reduction in trap catch compared with the unbaited trap.

[1] = tested on: seven-spot ladybird, Coccinella seplempunclata; experiment: Olfactometer assay with seven-spot ladybird; assay type: in vivo; conditions: 0.5 μl microcaps, position noted every 2 min for 20 min, 8 replicates; control arms 2.4±0.69; P<0.005
Text: Since semiochemicals acting as repellents or inhibitors of host attractancy for herbivorous insects are often involved in predation or parasitism, the activity of cis-jasmone was also investigated at higher trophic levels. […] These experiments indicate a behavioural role for cis-jasmone in influencing interactions between plants, herbivorous insects and their predators and parasitoids. Apparatus and methodology were similar to that employed for aphids (above). The test compound was applied in 0.5 μl microcaps (Drummond Sci. Co.) at the end of one of the side arms and each arm was supplied with moist filter paper to minimize differences in relative humidity. Individual C. septempunctata were introduced into the centre of the arena and their positions noted every 2 min for 20 min. The experiment was replicated 8 times and results analysed as above.

[2] = tested on: aphid parasitoid Aphidius ervi; experiment: Wind tunnel responses of A. ervi to V. faba plants exposed to the compound; assay type: in vivo
Method: (§1) A possible role for the compound as an airborne plant signal was investigated using the broad bean, V. faba (cv The Sutton). Plants were kept for 24 hours in clean air or in air incorporating cis-jasmone at 100 μg/l; subsequently, samples of volatiles released by the plants were obtained by entrainment over 4 periods of 48 hours, i.e. up to 192 hours after the end of the treatment. The cis-jasmone itself was undetectable after 48 hours. […] There was also, from some replicates, enhancement of (E,E)-α-farnesene, (−)-β-caryophyllene and (E)-4,8-dimethyl-1,3,7-nonatriene. These compounds have all been implicated in herbivorous insect-induced production and increased parasitoid foraging. The nonatriene can also be produced innately by plants imitating damage for defence against herbivores and which are thus attractive to parasitoids.
Naive female A. ervi were flown in a wind tunnel, as described in J. Chem. Ecol. 16, 381-396 (1996) (Poppy et al.). The parasitoids were released 25 cm downwind (single choice tests) or 40 cm downwind (dual choice test) of the target, which was either a plant or a synthetic compound (10 μg in 10 μl hexane) placed on a 2×1 cm strip of filter paper (Whatman No. 1) surrounded by a ring of green crêpe paper. The proportions of parasitoids responding with an oriented flight to the synthetic chemicals were calculated each day on 3 separate days. These values were then subjected to a logit transformation to normalize the data before being analysed by ANOVA followed by Tukey post-hoc tests. The number of parasitoids orienting upwind to the single plant target were recorded and subjected to a χ^2 contingency test (Pearson method on Genstat—see Genstat 5 Committee. Genstat 5 Reference Manual, Release 3 (Clarendon Press, Oxford, 1993)) to determine whether an orienting response was linked to the type of plant treatment. The numbers orienting to each plant in the dual choice test were analysed by a χ^2 to determine whether one plant was more attractive than the other. […]

[3] = tested on: broad bean, V. faba (cv The Sutton); experiment: Induction of volatile release by bean plants (air entrainment, GC/GC-MS); assay type: in vivo, Vicia faba; conditions: 24 hour exposure at 100 μg/l in air; from some replicates
Method: as §1
Bean plants, V. faba (cv The Sutton) were grown under standard glasshouse conditions until the 2-4 leaf stage when they were rinsed free of soil and transplanted into baked glass jars containing washed sand, with 3 plants per jar. These were left for 1-2 days to acclimatize. Plants to be treated (three jars of three plants each) were sealed in a 25 l glass tank for 24 hours with either cis-jasmone or methyl jasmonate (2.5 mg) applied to a piece of filter paper (Whatman No. 1) placed on the floor of the tank. […]

adult Lepidoptera = conditions: U.S. Pat. No. 5,665,344; cited from earlier work

CC/C=C\CC1=C(C)CCC1=O [cis-jasmone]
percent reduction in trap catch compared with the unbaited trap (pollen beetles; Analysis A, 2.2 mg/day): (44%)
Back-transformed mean catch per replicate (pollen beetles; Analysis A, 2.2 mg/day, unbaited trap 127.3): 70.9^b
percent reduction in trap catch compared with the unbaited trap (pollen beetles; Analysis A, 25 mg/day): (59%)
Back-transformed mean catch per replicate (pollen beetles; Analysis A, 25 mg/day, unbaited trap 127.3): 51.7^c
percent reduction in trap catch compared with the unbaited trap (pollen beetles; Experiment A, 2.2 mg/day): (21%)
Back-transformed mean catch per replicate (pollen beetles; Experiment A, 2.2 mg/day, unbaited trap 48.3): 38.2^ab
percent reduction in trap catch compared with the unbaited trap (pollen beetles; Experiment A, 25 mg/day): (35%)
Back-transformed mean catch per replicate (pollen beetles; Experiment A, 25 mg/day, unbaited trap 48.3): 31.4^b
percent reduction in trap catch compared with the unbaited trap (pollen beetles; Experiment B, 2.2 mg/day): (60%)
Back-transformed mean catch per replicate (pollen beetles; Experiment B, 2.2 mg/day, unbaited trap 333.1): 130.7^bc
percent reduction in trap catch compared with the unbaited trap (pollen beetles; Experiment B, 25 mg/day): (75%)
Back-transformed mean catch per replicate (pollen beetles; Experiment B, 25 mg/day, unbaited trap 333.1): 84.6^c
mean number of observations in the treated arm [1]: 4.1±1.55
% showing oriented flight ([2]; V. faba plants 48 hr after exposure (100 μg/l in air), single choice test, hexane control 20, P<0.01): 44%
parasitoids oriented towards the treated plant compared to the control ([2]; dual choice test of treated or untreated plants): over 3 times
% oriented to treated plant ([2]; dual choice test, treated plant versus control plant, 48 hr after exposure (100 μg/l in air), control plant 10, P<0.05): 32%
release of (E,E)-α-farnesene, (−)-β-caryophyllene and (E)-4,8-dimethyl-1,3,7-nonatriene [3]: enhancement
behavioural effect on adult Lepidoptera (adult Lepidoptera): attract adult Lepidoptera
